For 27 compounds, DC50 results are on record in US20250051347A1, “BIFUNCTIONAL CHIMERIC HETEROCYCLIC COMPOUND AND USE THEREOF AS ANDROGEN RECEPTOR DEGRADER” (Hinova Pharmaceuticals, Inc., priority 2021, published 2025).

Some results are limits rather than exact numbers.

The target of one assay is T1, androgen receptor (AR) splicing variant AR-v7 (Homo sapiens, UniProt P10275).
T1 construct: The degradation activity of compounds on AR-v7 in 22RV1 cells; host or cells: 22RV1 cells
T1 sequence (P10275 1-644 isoform P10275-3): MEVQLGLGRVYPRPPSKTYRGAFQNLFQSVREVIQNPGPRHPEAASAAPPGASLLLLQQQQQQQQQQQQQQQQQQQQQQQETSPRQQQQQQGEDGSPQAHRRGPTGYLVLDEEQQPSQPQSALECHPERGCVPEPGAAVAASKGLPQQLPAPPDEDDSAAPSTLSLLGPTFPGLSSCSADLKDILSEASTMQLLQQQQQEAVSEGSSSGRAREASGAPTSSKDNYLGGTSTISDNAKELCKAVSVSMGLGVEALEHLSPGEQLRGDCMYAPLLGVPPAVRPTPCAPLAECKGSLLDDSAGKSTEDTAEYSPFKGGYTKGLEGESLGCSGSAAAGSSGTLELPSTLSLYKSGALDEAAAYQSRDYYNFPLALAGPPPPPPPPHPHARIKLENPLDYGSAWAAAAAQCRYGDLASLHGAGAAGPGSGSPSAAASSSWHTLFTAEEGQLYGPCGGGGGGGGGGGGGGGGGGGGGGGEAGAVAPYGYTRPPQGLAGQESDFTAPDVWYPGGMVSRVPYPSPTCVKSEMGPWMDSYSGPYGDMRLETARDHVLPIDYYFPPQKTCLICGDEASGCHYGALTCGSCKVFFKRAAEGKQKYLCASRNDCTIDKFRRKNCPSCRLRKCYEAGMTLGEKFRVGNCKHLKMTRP
Kind of assay: Degradation activity on androgen receptor splicing variant AR-v7 in 22RV1 cells (ELISA). It is filed as cell-based. The following applies: AR-v7 degradation in 22RV1 cells, 48 h, class symbols. (In general: An ELISA detects its analyte on a solid surface through an enzyme-linked reagent.)
The compound `CC(=O)c1cc(COc2ccc(C(C)(C)c3ccc(OCCCCCCCCOCCCCNc4cccc5c4C(=O)N(C4CCC(=O)NC4=O)C5=O)cc3)cc2)ccn1` (stereo not drawn) [Example 348, 4-((4-((8-(4-(2-(4-((2-acetylpyridin-4-yl)methoxy)phenyl)isopropan-2-yl)phenoxy)octyl)oxy)butyl)amino)-2-(2,6-dioxopiperidin-3-yl)isoindolin-1,3-dione] displayed a DC50 of 1 to 5 µM.
On the same count and under the same terms, the same measure for `CC(C)(c1ccc(Oc2cnc(C(F)(F)F)nc2)cc1)c1ccc(O[C@H]2C[C@H](Nc3ccc4c(c3)C(=O)N(C3CCC(=O)NC3=O)C4=O)C2)cc1` (stereo partly drawn) [Example 264]: 0.011 to 0.1 µM; for `CC(C)(c1ccc(CNC2CN(c3ccc4c(c3)C(=O)N(C3CCC(=O)NC3=O)C4=O)C2)cc1)c1ccc(OCc2ccnc(N3CC4(COC4)C3)n2)cc1` (stereo not drawn) [Example 509]: 0.011 to 0.1 µM.
Turning to `C[C@@H]1CN[C@@H](C)CN1c1nccc(COc2ccc(C(C)(C)c3ccc(O[C@H]4C[C@@H](Nc5ccc6c(c5)C(=O)N(C5CCC(=O)NC5=O)C6=O)C4)cc3)cc2)n1` (stereo partly drawn) [Example 411], the DC50 was in the range of 0.011 to 0.1 µM.
On the same count and under the same terms, the same measure for `CC(C)(c1ccc(Oc2cncc(N3CC4(COC4)C3)n2)cc1)c1ccc(O[C@H]2C[C@@H](Nc3ccc4c(c3)C(=O)N(C3CCC(=O)NC3=O)C4=O)C2)cc1` (stereo partly drawn) [Example 159]: 0.011 to 0.1 µM.
In turn, `CC(C)(c1ccc(C#CCNc2ccc3c(c2)C(=O)N(C2CCC(=O)NC2=O)C3=O)cc1)c1ccc(OCc2ccnc(N3CC4(COC4)C3)n2)cc1` (stereo not drawn) [Example 309, 5-((3-(4-(2-(4-((2-(2-oxa-6-azaspiro[3.3]heptan-6-yl)pyrimidin-4-yl)methoxy)phenyl)propan-2-yl)phenyl)prop-2-yn-1-yl)amino)-2-(2,6-dioxopiperidin-3-yl)isoindolin-1,3-dione] yielded a DC50 of 0.011 to 0.1 µM.
The same measure, in the same setting: under `CC(=O)c1nccc(COc2ccc(C(C)(C)c3ccc(OCCCNc4cccc5c4C(=O)N(C4CCC(=O)NC4=O)C5=O)cc3)cc2)n1` (stereo not drawn) [Example 344, 4-((3-(4-(2-(4-((2-acetylpyrimidin-4-yl)methoxy)phenyl)isopropan-2-yl)phenoxy)propyl)amino)-2-(2,6-dioxopiperidin-3-yl)isoindolin-1,3-dione] stands 1 to 5 µM.
On to `CC(=O)c1nccc(COc2ccc(C(C)(C)c3ccc(N4CCC5(CC4)CN(c4ccc6c(c4)C(=O)N(C4CCC(=O)NC4=O)C6=O)C5)cc3)cc2)n1` (stereo not drawn) [Example 305], for which the DC50 is 1 to 5 µM.
`CC(C)(c1ccc(OCc2ccnc(OC3CCNCC3)n2)cc1)c1ccc(O[C@H]2C[C@@H](Nc3ccc4c(c3)C(=O)N(C3CCC(=O)NC3=O)C4=O)C2)cc1` (stereo partly drawn) [Example 236] had a DC50 of 0.011 to 0.1 µM.
Same read-out and setting: the same measure for `CC(C)(c1ccc(OCc2ccnc(-c3cc[nH]n3)n2)cc1)c1ccc(O[C@H]2C[C@@H](Nc3ccc4c(c3)C(=O)N(C3CCC(=O)NC3=O)C4=O)C2)cc1` (stereo partly drawn) [Example 274]: 0.011 to 0.1 µM; for `CC(C)(c1ccc(Oc2nc(-n3nccn3)ccc2F)cc1)c1ccc(O[C@H]2C[C@H](Nc3ccc4c(c3)C(=O)N(C3CCC(=O)NC3=O)C4=O)C2)cc1` (stereo partly drawn) [Example 320]: 0.011 to 0.1 µM; for `CC(C)(c1ccc(OCc2ccnc(N3CCC4(CC3)COC4)n2)cc1)c1ccc(O[C@H]2C[C@@H](Nc3ccc4c(c3)C(=O)N(C3CCC(=O)NC3=O)C4=O)C2)cc1` (stereo partly drawn) [Example 87, 5-(((1s,3s)-3-(4-(2-(4-((2-(2-oxa-7-azaspiro[3.5]nonan-7-yl)pyrimidin-4-yl)methoxy)phenyl)propan-2-yl)phenoxy)cyclobutyl)amino)-2-(2,6-dioxopiperidin-3-yl)isoindolin-1,3-dione]: 0.011 to 0.1 µM.
With `CC(COc1ccc(C(C)(C)c2ccc(OCc3ccnc(N4CC5(COC5)C4)n3)cc2)cc1)Nc1ccc2c(c1)C(=O)N(C1CCC(=O)NC1=O)C2=O` (stereo not drawn) [Example 151, 5-((1-(4-(2-(4-((2-(2-oxa-6-azaspiro[3.3]heptan-6-yl)pyrimidin-4-yl)methoxy)phenyl)propan-2-yl)phenoxy)propan-2-yl)amino)-2-(2,6-dioxopiperidin-3-yl)isoindolin-1,3-dione], the half-maximal degradation concentration (DC50) was 0.011 to 0.1 µM.
Still for that read-out and setting: under `CC(C)(c1ccc(Oc2ccc(-n3cccn3)nc2)cc1)c1ccc(O[C@H]2C[C@H](Nc3ccc4c(c3)C(=O)N(C3CCC(=O)NC3=O)C4=O)C2)cc1` (stereo partly drawn) [Example 208] stands 0.011 to 0.1 µM; under `COC(=O)c1ncc(Oc2ccc(C(C)(C)c3ccc(O[C@H]4C[C@H](Nc5ccc6c(c5)C(=O)N(C5CCC(=O)NC5=O)C6=O)C4)cc3)cc2)cn1` (stereo partly drawn) [Example 266, methyl 5-(4-(2-(4-((1r,3r)-3-((2-(2,6-dioxopiperidin-3-yl)-1,3-dioxoisoindolin-5-yl)amino)cyclobutyloxy)phenyl)propan-2-yl)phenoxy)pyrimidin-2-carboxylate], 0.011 to 0.1 µM; under `CC(C)(c1ccc(OCc2ccnc(OC3CN(C4CC4)C3)n2)cc1)c1ccc(O[C@H]2C[C@@H](Nc3ccc4c(c3)C(=O)N(C3CCC(=O)NC3=O)C4=O)C2)cc1` (stereo partly drawn) [Example 467, 5-(((1s,3s)-3-(4-(2-(4-((2-((1-cyclopropylazetidin-3-yl)oxy)pyrimidin-4-yl)methoxy)phenyl)propan-2-yl)phenoxy)cyclobutyl)amino)-2-(2,6-dioxopiperidin-3-yl)isoindolin-1,3-dione], 0.011 to 0.1 µM.
The compound `CC(C)(c1ccc(OCc2ccnc(N3CC4(COC4)C3)n2)cc1)c1ccc(OC[C@H]2CCCN2Cc2ccc3c(c2)C(=O)N(C2CCC(=O)NC2=O)C3=O)cc1` (stereo partly drawn) [Example 565] gave a DC50 of 1 to 5 µM.
The same measure, in the same setting: the same measure for `COC(=O)c1nccc(COc2ccc(C(C)(C)c3ccc(OCCCNc4ccc5c(c4)C(=O)N(C4CCC(=O)NC4=O)C5=O)cc3)cc2)n1` (stereo not drawn) [Example 184]: 1 to 5 µM; for `C[C@@H]1CN(c2nccc(COc3ccc(C(C)(C)c4ccc(O[C@H]5C[C@@H](Nc6ccc7c(c6)C(=O)N(C6CCC(=O)NC6=O)C7=O)C5)cc4)cc3)n2)[C@H](C)CN1C` (stereo partly drawn) [Example 409]: 0.011 to 0.1 µM; for `Cc1nc(-c2ccc(Oc3ccc(C4(c5ccc(O[C@H]6C[C@H](Nc7ccc8c(c7)C(=O)N(C7CCC(=O)NC7=O)C8=O)C6)cc5)CC4)cc3)nn2)no1` (stereo partly drawn) [Example 376, 2-(2,6-dioxopiperidin-3-yl)-5-(((1r,3r)-3-(4-(1-(4-((6-(5-methyl-1,2,4-oxadiazol-3-yl)pyridazine-3-yl)oxy)phenyl)cyclopropyl)phenoxy)cyclobutyl)amino)isoindolin-1,3-dione]: 0.011 to 0.1 µM.
Still for that read-out and setting: the same measure for `Cc1nc(-c2cc(Oc3ccc(C(C)(C)c4ccc(O[C@H]5C[C@H](Nc6ccc7c(c6)C(=O)N(C6CCC(=O)NC6=O)C7=O)C5)cc4)cc3)ccn2)no1` (stereo partly drawn) [Example 167, 2-(2,6-dioxopyridin-3-yl)-5-(((1r,3r)-3-(4-(2-((4-(2-(5-methyl-1,2,4-oxadiazol-3-yl)pyridin-4-yl)oxy)phenyl)propan-2-yl)phenoxy)cyclobutyl)amino) isoindolin-1,3-dione]: 0.011 to 0.1 µM.
With `CC(C)(c1ccc(OCc2ccnc(N3CC4(COC4)C3)n2)cc1)c1ccc(OC2CC3(CC(Nc4ccc5c(c4)C(=O)N(C4CCC(=O)NC4=O)C5=O)C3)C2)cc1` (stereo not drawn) [Example 567, 5-((6-(4-(2-(4-((2-(2-oxa-6-azaspiro[3.3]heptan-6-yl)pyrimidin-4-yl)methoxy)phenyl)propan-2-yl)phenoxy)spiro[3.3]heptan-2-yl)amino)-2-(2,6-dioxopiperidin-3-yl)isoindolin-1,3-dione], the DC50 fell in the range of 0.101 to 1 µM.
Same read-out and setting: the same measure for `Cc1nnc(-c2ncc(Oc3ccc(C(C)(C)c4ccc(O[C@H]5C[C@@H](Nc6ccc7c(c6)C(=O)N(C6CCC(=O)NC6=O)C7=O)C5)cc4)cc3)cn2)o1` (stereo partly drawn) [Example 484]: 0.011 to 0.1 µM; for `CC(C)(c1ccc(OCCCN2CCN(CC3CCN(CC4CN(c5ccc6c(c5)C(=O)N(C5CCC(=O)NC5=O)C6=O)C4)CC3)CC2)cc1)c1ccc(OCc2ccnc(NS(C)(=O)=O)n2)cc1` (stereo not drawn) [Example 11, N-(4-((4-(2-(4-(3-(4-((1-((1-(2-(2,6-dioxopiperidin-3-yl)-1,3-dioxoisoindolin-5-yl)azetidin-3-yl)methyl)piperidin-4-yl)methyl)piperazin-1-yl)propoxy)phenyl)propan-2-yl)phenoxy)methyl)pyrimidin-2-yl)methanesulfonamide]: 1 to 5 µM.

Staying with this assay, now noted: AR-v7 degradation in 22RV1 cells, 48 h, numeric values.
As for `CC(C)(c1ccc(OCc2ccnc(NS(C)(=O)=O)n2)cc1)c1ccc(OCC2CCN(CCCOCCCCNc3ccc4c(c3)C(=O)N(C3CCC(=O)NC3=O)C4=O)CC2)cc1` (stereo not drawn) [Example 16], the 50% degradation concentration (DC50) was more than 10 µM.
Same read-out and setting: the same measure for `CC(C)(c1ccc(OCc2ccnc(NS(C)(=O)=O)n2)cc1)c1ccc(OCC2CCN(CCCOCCCNc3ccc4c(c3)C(=O)N(C3CCC(=O)NC3=O)C4=O)CC2)cc1` (stereo not drawn) [Example 40]: more than 10 µM; for `CC(C)(c1ccc(OCCCCCCCCCN2CCN(C3CN(c4ccc5c(c4)C(=O)N(C4CCC(=O)NC4=O)C5=O)C3)CC2)cc1)c1ccc(OCc2ccnc(NS(C)(=O)=O)n2)cc1` (stereo not drawn) [Example 5, N-(4-((4-(2-(4-((9-(4-(1-(2-(2,6-dioxopiperidin-3-yl)-1,3-dioxoisoindolin-5-yl)azetidin-3-yl)piperazin-1-yl)nonyl)oxy)phenyl)propan-2-yl)phenoxy)methyl)pyrimidin-2-yl)methanesulfonamide]: more than 10 µM.

Usually DC50 stands for the midpoint of the concentration-degradation curve. The low end stands for degradation at low concentration, the high end for degradation only at high concentration.
